Laboratory results published in US9034897B2, “Indanyl-substituted 4,5,6,7-tetrahydro-1H-pyrazolo[4,3-C]pyridines, their use as medicament, and pharmaceutical preparations comprising them” (SANOFI, priority 2011, dated 2015).

Target: Human TASK-1 channels (Homo sapiens (Human), UniProt O14649)
Experiment: Activity on the TASK-1 channel in Xenopus oocytes (two-microelectrode voltage clamp)
Type: cell-based
Conditions: 5 μM; percentage inhibition of TASK-1 control current, Xenopus oocytes
Experimental: Determination of the activity on the TASK-1 channel in Xenopus oocytes:
Human TASK-1 channels were expressed in Xenopus oocytes. For this purpose, oocytes were isolated from Xenopus laevis and defolliculated. Subsequently, TASK-1-encoding RNA synthesized in vitro was injected into oocytes. After two days of TASK-1 protein expression, TASK-1 currents were measured by two-microelectrode voltage clamp. Data were acquired and analyzed using a TEC-10cx amplifier (NPI Electronic, Tamm, Germany) connected to an ITC-16 interface (Instrutech Corp., Long Island, USA) and Pulse software (HEKA Elektronik, Lambrecht, Germany). Oocytes were clamped to −90 mV and TASK-1 mediated currents were measured during 500 ms voltage pulses to 40 mV. Oocytes were continuously superfused with ND96 buffer containing: NaCl 96 mM, KCl2 mM, CaCl2 1.8 mM, MgCl2 1 mM, HEPES 5 mM (pH adjusted to 7.4 with NaOH). All experiments were performed at room temperature.
Test substances were consecutively added to the bath solution at rising concentrations. Compound effects were calculated as the percentage inhibition of
TASK-1 control current before compound application. IC50 values were obtained by fitting the data to the general dose-response equation.

Chain of Human TASK-1 channels (O14649 whole entry): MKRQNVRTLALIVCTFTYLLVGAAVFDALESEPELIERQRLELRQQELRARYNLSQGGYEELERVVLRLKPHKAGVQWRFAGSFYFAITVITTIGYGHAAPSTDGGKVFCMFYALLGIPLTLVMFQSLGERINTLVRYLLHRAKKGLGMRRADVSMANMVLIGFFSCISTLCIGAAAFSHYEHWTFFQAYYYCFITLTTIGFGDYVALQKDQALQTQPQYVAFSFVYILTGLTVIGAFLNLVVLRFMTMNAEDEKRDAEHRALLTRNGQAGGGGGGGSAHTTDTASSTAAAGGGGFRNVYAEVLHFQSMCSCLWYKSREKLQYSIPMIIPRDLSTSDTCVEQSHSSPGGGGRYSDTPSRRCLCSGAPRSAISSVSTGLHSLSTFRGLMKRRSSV

Structure (SMILES)	inhibition at 5 µM
CC(=O)N1CCc2c(c(-c3ccc(C(F)(F)F)cc3)nn2[C@@H]2c3cc(F)cc(F)c3C[C@H]2O)C1 [Example 11ae, 1-[1-((1R,2R)-4,6-Difluoro-2-hydroxy-indan-1-yl)-3-(4-trifluoromethyl-phenyl)-1,4,6,7-tetrahydro-pyrazolo[4,3-c]pyridin-5-yl]-ethanone]	61%

Same assay, conditions: human TASK-1 expressed in Xenopus oocytes, currents during 500 ms pulses to 40 mV, room temperature

Structure (SMILES)	IC50
CC(=O)N1CCc2c(c(-c3ccc(F)cc3)nn2[C@@H]2c3c(Cl)cc(Cl)cc3C[C@H]2O)C1 (racemic) [Example 11ac, racemic 1-[1-((1R,2R)-5,7-Dichloro-2-hydroxy-indan-1-yl)-3-(4-fluoro-phenyl)-1,4,6,7-tetrahydro-pyrazolo[4,3-c]pyridin-5-yl]-ethanone]	3880 nM
CC(=O)N1CCc2c(c(-c3ccc(F)c(C(F)(F)F)c3)nn2[C@H]2c3cc(F)cc(F)c3C[C@]2(C)O)C1 (racemic) [Example 11i, racemic 1-[1-((1S,2S)-4,6-Difluoro-2-hydroxy-2-methyl-indan-1-yl)-3-(4-fluoro-3-trifluoromethyl-phenyl)-1,4,6,7-tetrahydro-pyrazolo[4,3-c]pyridin-5-yl]-ethanone]	375 nM
CC(=O)N1CCc2c(c(-c3ccc(F)cc3)nn2[C@@H]2c3cc(Cl)c(Cl)cc3C[C@H]2O)C1 (racemic) [Example 11u, racemic 1-[1-((1R,2R)-5,6-Dichloro-2-hydroxy-indan-1-yl)-3-(4-fluoro-phenyl)-1,4,6,7-tetrahydro-pyrazolo[4,3-c]pyridin-5-yl]-ethanone]	1010 nM
CC(=O)N1CCc2c(c(-c3cccc(C#N)c3)nn2[C@@H]2c3cc(F)cc(F)c3C[C@@]2(C)O)C1 (racemic) [Example 11w, Racemic 3-[5-Acetyl-1-((1R,2R)-4,6-difluoro-2-hydroxy-2-methyl-indan-1-yl)-4,5,6,7-tetrahydro-1H-pyrazolo[4,3-c]pyridin-3-yl]-benzonitrile]	1260 nM
CC(=O)N1CCc2c(c(-c3cccc(OC(F)(F)F)c3)nn2[C@@H]2c3cc(F)cc(F)c3C[C@H]2O)C1 [Example 11a, 1-[1-((1R,2R)-4,6-Difluoro-2-hydroxy-indan-1-yl)-3-(3-trifluoromethoxy-phenyl)-1,4,6,7-tetrahydro-pyrazolo[4,3-c]pyridin-5-yl]-ethanone]	171 nM
CC(=O)N1CCc2c(c(-c3cccc(F)c3)nn2[C@@H]2c3cc(F)cc(F)c3C[C@H]2O)C1 [Example 11aa, 1-[1-((1R,2R)-4,6-Difluoro-2-hydroxy-indan-1-yl)-3-(3-fluoro-phenyl)-1,4,6,7-tetrahydro-pyrazolo[4,3-c]pyridin-5-yl]-ethanone]	2220 nM
CC(=O)N1CCc2c(c(-c3ccc(Cl)cc3)nn2[C@@H]2c3cc(F)cc(F)c3C[C@H]2O)C1 [Example 11ab, 1-[3-(4-Chloro-phenyl)-1-((1R,2R)-4,6-difluoro-2-hydroxy-indan-1-yl)-1,4,6,7-tetrahydro-pyrazolo[4,3-c]pyridin-5-yl]-ethanone]	2970 nM
COc1ccc(-c2nn([C@@H]3c4cc(F)cc(F)c4C[C@H]3O)c3c2CN(C(C)=O)CC3)cc1 [Example 11ad, 1-[1-((1R,2R)-4,6-Difluoro-2-hydroxy-indan-1-yl)-3-(4-methoxy-phenyl)-1,4,6,7-tetrahydro-pyrazolo[4,3-c]pyridin-5-yl]-ethanone]	6890 nM
CC(=O)N1CCc2c(c(-c3cccc(Cl)c3)nn2[C@H]2c3cc(F)cc(F)c3C[C@@H]2O)C1 [Example 11b, 1-[3-(3-Chloro-phenyl)-1-((1S,2S)-4,6-difluoro-2-hydroxy-indan-1-yl)-1,4,6,7-tetrahydro-pyrazolo[4,3-c]pyridin-5-yl]-ethanone]	190 nM
COc1ccc(F)c(-c2nn([C@@H]3c4cc(F)cc(F)c4C[C@H]3O)c3c2CN(C(C)=O)CC3)c1 [Example 11c, 1-[1-((1R,2R)-4,6-Difluoro-2-hydroxy-indan-1-yl)-3-(2-fluoro-5-methoxy-phenyl)-1,4,6,7-tetrahydro-pyrazolo[4,3-c]pyridin-5-yl]-ethanone]	204 nM
CC(=O)N1CCc2c(c(-c3cccc(C#N)c3)nn2[C@@H]2c3cc(F)cc(Br)c3C[C@H]2O)C1 [Example 11d, 3-[5-Acetyl-1-((1R,2R)-4-bromo-6-fluoro-2-hydroxy-indan-1-yl)-4,5,6,7-tetrahydro-1H-pyrazolo[4,3-c]pyridin-3-yl]-benzonitrile]	226 nM
CC(=O)N1CCc2c(c(-c3cccc(C(F)(F)F)n3)nn2[C@@H]2c3cc(F)cc(F)c3C[C@H]2O)C1 [Example 11e, 1-[1-((1R,2R)-4,6-Difluoro-2-hydroxy-indan-1-yl)-3-(6-trifluoromethyl-pyridin-2-yl)-1,4,6,7-tetrahydro-pyrazolo[4,3-c]pyridin-5-yl]-ethanone]	239 nM
CC(=O)N1CCc2c(c(-c3ccc(F)c(C(F)(F)F)c3)nn2[C@@H]2c3cc(F)cc(F)c3C[C@H]2O)C1 [Example 11f, 1-[1-((1R,2R)-4,6-Difluoro-2-hydroxy-indan-1-yl)-3-(4-fluoro-3-trifluoromethyl-phenyl)-1,4,6,7-tetrahydro-pyrazolo[4,3-c]pyridin-5-yl]-ethanone]	270 nM
CC(=O)N1CCc2c(c(-c3cccc(C#N)c3)nn2[C@@H]2c3cc(Cl)cc(Cl)c3C[C@H]2O)C1 [Example 11g, 3-[5-Acetyl-1-((1R,2R)-4,6-dichloro-2-hydroxy-indan-1-yl)-4,5,6,7-tetrahydro-1H-pyrazolo[4,3-c]pyridin-3-yl]-benzonitrile]	350 nM
CC(=O)N1CCc2c(c(-c3cccc(C(F)(F)F)c3)nn2[C@H]2c3cc(F)cc(F)c3C[C@@H]2O)C1 [Example 11h, 1-[1-((1S,2S)-4,6-Difluoro-2-hydroxy-indan-1-yl)-3-(3-trifluoromethyl-phenyl)-1,4,6,7-tetrahydro-pyrazolo[4,3-c]pyridin-5-yl]-ethanone]	370 nM
COc1cccc(-c2nn([C@@H]3c4cc(F)cc(F)c4C[C@H]3O)c3c2CN(C(C)=O)CC3)c1 [Example 11k, 1-[1-((1R,2R)-4,6-Difluoro-2-hydroxy-indan-1-yl)-3-(3-methoxy-phenyl)-1,4,6,7-tetrahydro-pyrazolo[4,3-c]pyridin-5-yl]-ethanone]	442 nM
CC(=O)N1CCc2c(c(-c3ccc(F)cc3)nn2[C@@H]2c3cc(F)cc(F)c3C[C@H]2O)C1 [Example 11l, 1-[1-((1R,2R)-4,6-Difluoro-2-hydroxy-indan-1-yl)-3-(4-fluoro-phenyl)-1,4,6,7-tetrahydro-pyrazolo[4,3-c]pyridin-5-yl]-ethanone]	495 nM
CC(=O)N1CCc2c(c(-c3cccc(C(F)(F)F)n3)nn2[C@@H]2c3cc(Cl)cc(Cl)c3C[C@H]2O)C1 [Example 11m, 1-[1-((1R,2R)-4,6-Dichloro-2-hydroxy-indan-1-yl)-3-(6-trifluoromethyl-pyridin-2-yl)-1,4,6,7-tetrahydro-pyrazolo[4,3-c]pyridin-5-yl]-ethanone]	518 nM
CC(=O)N1CCc2c(c(-c3ccc(F)cc3)nn2[C@@H]2c3cc(Cl)cc(F)c3C[C@H]2O)C1 [Example 11n, 1-[1-((1R,2R)-6-Chloro-4-fluoro-2-hydroxy-indan-1-yl)-3-(4-fluoro-phenyl)-1,4,6,7-tetrahydro-pyrazolo[4,3-c]pyridin-5-yl]-ethanone]	568 nM
CC(=O)N1CCc2c(c(-c3cccc(C#N)c3)nn2[C@H]2c3cc(F)cc(F)c3C[C@@H]2O)C1 [Example 11o, 3-[5-Acetyl-1-((1S,2S)-4,6-difluoro-2-hydroxy-indan-1-yl)-4,5,6,7-tetrahydro-1H-pyrazolo[4,3-c]pyridin-3-yl]-benzonitrile]	675 nM
CC(=O)N1CCc2c(c(-c3cccc(C#N)c3)nn2[C@@H]2c3cc(Cl)ccc3C[C@H]2O)C1 [Example 11p, 3-[5-Acetyl-1-((1R,2R)-6-chloro-2-hydroxy-indan-1-yl)-4,5,6,7-tetrahydro-1H-pyrazolo[4,3-c]pyridin-3-yl]-benzonitrile]	685 nM
CC(=O)N1CCc2c(c(-c3cccc(C(F)(F)F)c3)nn2[C@@H]2c3cc(F)cc(F)c3C[C@H]2O)C1 [Example 11q, 1-[1-((1R,2R)-4,6-Difluoro-2-hydroxy-indan-1-yl)-3-(3-trifluoromethyl-phenyl)-1,4,6,7-tetrahydro-pyrazolo[4,3-c]pyridin-5-yl]-ethanone]	773 nM
CC(=O)N1CCc2c(c(-c3cccc(OC(F)(F)F)c3)nn2[C@H]2c3cc(F)cc(F)c3C[C@@H]2O)C1 [Example 11r, 1-[1-((1S,2S)-4,6-Difluoro-2-hydroxy-indan-1-yl)-3-(3-trifluoromethoxy-phenyl)-1,4,6,7-tetrahydro-pyrazolo[4,3-c]pyridin-5-yl]-ethanone]	789 nM
CC(=O)N1CCc2c(c(-c3ccc(F)cc3)nn2[C@@H]2c3cc(Cl)ccc3C[C@H]2O)C1 [Example 11s, 1-[1-((1R,2R)-6-Chloro-2-hydroxy-indan-1-yl)-3-(4-fluoro-phenyl)-1,4,6,7-tetrahydro-pyrazolo[4,3-c]pyridin-5-yl]-ethanone]	804 nM
CC(=O)N1CCc2c(c(-c3cccc(C#N)c3)nn2[C@@H]2c3cc(F)cc(F)c3C[C@H]2O)C1 [Example 11t, 3-[5-Acetyl-1-((1R,2R)-4,6-difluoro-2-hydroxy-indan-1-yl)-4,5,6,7-tetrahydro-1H-pyrazolo[4,3-c]pyridin-3-yl]-benzonitrile]	881 nM
